Results published in patent US10689331B2, “IDO inhibitors” (Bristol-Myers Squibb Company, priority 2015, dated 2020).
Where a name gives a salt, the structure may show the parent alone.

target: T1, human IDO1 (Homo sapiens, UniProt P14902); assay: HEK Human IDO-1 inhibition assay (kynurenine readout, Ehrlich reagent, absorbance 490 nm); type: cell-based; settings: human IDO1/HEK293 cells, incubated 20 hours with compound; 500 nM reference standard = 100% inhibition
T1 construct: expressed in transfected cells
T1 sequence (P14902 whole entry): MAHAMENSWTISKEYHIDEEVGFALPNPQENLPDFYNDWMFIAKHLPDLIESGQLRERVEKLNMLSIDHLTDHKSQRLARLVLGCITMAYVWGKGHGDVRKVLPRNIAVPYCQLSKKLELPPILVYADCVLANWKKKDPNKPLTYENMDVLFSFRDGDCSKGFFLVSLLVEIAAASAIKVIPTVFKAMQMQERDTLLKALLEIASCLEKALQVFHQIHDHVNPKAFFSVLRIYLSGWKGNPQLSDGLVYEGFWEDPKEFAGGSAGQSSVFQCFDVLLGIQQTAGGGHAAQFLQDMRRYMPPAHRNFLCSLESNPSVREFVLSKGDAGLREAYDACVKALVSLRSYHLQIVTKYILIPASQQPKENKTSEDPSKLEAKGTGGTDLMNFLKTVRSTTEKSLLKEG
Description: HEK293 cells were transfected with a pCDNA-based mammalian expression vector harboring human IDO1 cDNA (NM 002164.2) by electroporation. They were cultured in medium (DMEM with 10% FBS) containing 1 mg/ml G418 for two weeks. Clones of HEK293 cells that stably expressed human IDO1 protein were selected and expanded for IDO inhibition assay.
The human IDO1/HEK293 cells were seeded at 10,000 cells per 50 uL per well with RPMI/phenol red free media contains 10% FBS in a 384-well black wall clear bottom tissue culture plate (Matrix Technologies LLC) 100 nL of certain concentration of compound was then added to each well using ECHO liquid handling systems. The cells were incubated for 20 hours in 37° C. incubator with 5% CO2.
The compound treatments were stopped by adding Trichloroacetic Acid (Sigma-Aldrich) to a final concentration at 0.2%. The cell plate was further incubated at 50° C. for 30 minute. The equal volume supernatant (20 uL) and 0.2% (w/v) Ehrlich reagent (4-dimethylaminobenzaldehyde, Sigma-Aldrich) in glacial acetic acid were mixed in a new clear bottom 384-well plate. This plate was then incubated at room temperature for 30 minute. The absorbance at 490 nm was measured on Envision plate reader. Compound IC50 values were calculated using the counts of 500 nM of a reference standard treatment as one hundred percent inhibition, and counts of no compound but DMSO treatment as zero percent inhibition.

Row | Structure (SMILES) | IC50 [nM]
1 | COCC(Oc1ccc(N(CC(C)C)C2CCCCC2)c(NC(=O)Nc2ccc(Cl)cc2F)c1)C(=O)O (single isomer, unassigned) [Example 89-2, 2-(3-(3-(4-chloro-2-fluorophenyl)ureido)-4-(cyclohexyl(isobutyl)amino)phenoxy)-3-methoxypropanoic acid] | < 100
2 | COCC(Oc1ccc(N(CC(C)C)C2CCCCC2)c(NC(=O)Nc2ccc(C)cc2)c1)C(=O)O (single isomer, unassigned) [Example 90-1, 2-(4-(cyclohexyl(isobutyl)amino)-3-(3-(p-tolyl)ureido)phenoxy)-3-methoxypropanoic acid] | ≥ 100
3 | COCC(Oc1ccc(N(CC(C)C)C2CCCCC2)c(NC(=O)Nc2ccc(C)cc2)c1)C(=O)O (single isomer, unassigned) [Example 90-2, 2-(4-(cyclohexyl(isobutyl)amino)-3-(3-(p-tolyl)ureido)phenoxy)-3-methoxypropanoic acid] | < 100
4 | CC(C)CN(c1cc(F)c(OC(C)C(=O)O)cc1NC(=O)Nc1ccc(Cl)cc1F)C1CCCCC1 (single isomer, unassigned) [Example 136-1, 2-(5-(3-(4-chloro-2-fluorophenyl)ureido)-4-(cyclohexyl(isobutyl)amino)-2-fluorophenoxy)propanoic acid.TFA] | < 5
5 | C=C(C)CN(c1ccc(OC(C)C(=O)O)cc1NC(=O)Nc1ccc(Cl)cc1F)C1CCOCC1 (single isomer, unassigned) [Example 139-1, 2-(3-(3-(4-chloro-2-fluorophenyl)ureido)-4-((2-methylallyl)(tetrahydro-2H-pyran-4-yl)amino)phenoxy)propanoic acid] | < 100
6 | C=C(C)CN(c1ccc(OC(C)C(=O)O)cc1NC(=O)Nc1ccc(Cl)cc1F)C1CCOCC1 (single isomer, unassigned) [Example 139-2, 2-(3-(3-(4-chloro-2-fluorophenyl)ureido)-4-((2-methylallyl)(tetrahydro-2H-pyran-4-yl)amino)phenoxy)propanoic acid] | < 5
7 | CCC(Oc1ccc(N(CC(C)C)C2CCOCC2)c(NC(=O)Nc2ccc(Cl)cc2F)c1)C(=O)O (single isomer, unassigned) [Example 143-1, 2-(3-(3-(4-chloro-2-fluorophenyl)ureido)-4-(isobutyl(tetrahydro-2H-pyran-4-yl)amino)phenoxy)butanoic acid] | < 100
8 | CCC(Oc1ccc(N(CC(C)C)C2CCOCC2)c(NC(=O)Nc2ccc(Cl)cc2F)c1)C(=O)O (single isomer, unassigned) [Example 143-2, 2-(3-(3-(4-chloro-2-fluorophenyl)ureido)-4-(isobutyl(tetrahydro-2H-pyran-4-yl)amino)phenoxy)butanoic acid] | < 5
9 | CC(C)CN(c1ccc(OC(C)C(=O)O)cc1NC(=O)Nc1ccc(Cl)cc1F)C1CCOC1 (single isomer, unassigned) [Example 146-1, 2-(3-(3-(4-chloro-2-fluorophenyl)ureido)-4-(isobutyl(tetrahydrofuran-3-yl)amino)phenoxy)propanoic acid] | ≥ 100
10 | CC(C)CN(c1ccc(OC(C)C(=O)O)cc1NC(=O)Nc1ccc(Cl)cc1F)C1CCOC1 (single isomer, unassigned) [Example 146-2, 2-(3-(3-(4-chloro-2-fluorophenyl)ureido)-4-(isobutyl(tetrahydrofuran-3-yl)amino)phenoxy)propanoic acid] | < 100
11 | CC(C)CN(c1ccc(OCC(=O)O)cc1NC(=O)Nc1ccc(Cl)cc1F)C1CCCCC1 [Example 1, 2-(3-(3-(4-chloro-2-fluorophenyl)ureido)-4-(cyclohexyl(isobutyl)amino)phenoxy)acetic acid] | < 5
12 | CC(C)CN(c1ccc(OCC(=O)O)cc1NC(=O)Nc1cncnc1)C1CCCCC1 [Example 2, 2-(4-(cyclohexyl(isobutyl)amino)-3-(3-(pyrimidin-5-yl)ureido)phenoxy)acetic acid] | ≥ 100
13 | CC(C)CN(c1ccc(OCC(=O)O)cc1NC(=O)Nc1cccnc1)C1CCCCC1 [Example 3, 2-(4-(cyclohexyl(isobutyl)amino)-3-(3-(pyridin-3-yl)ureido)phenoxy)acetic acid] | ≥ 100
14 | Cc1cc(NC(=O)Nc2cc(OCC(=O)O)ccc2N(CC(C)C)C2CCCCC2)on1 [Example 4, 2-(4-(cyclohexyl(isobutyl)amino)-3-(3-(3-methylisoxazol-5-yl)ureido)phenoxy)acetic acid] | < 100
15 | CC(C)CN(c1ccc(OCC(=O)O)cc1NC(=O)Nc1ccncc1)C1CCCCC1 [Example 5, 2-(4-(cyclohexyl(isobutyl)amino)-3-(3-(pyridin-4-yl)ureido)phenoxy)acetic acid] | ≥ 100
16 | CC(C)CN(c1ccc(OCC(=O)O)cc1NC(=O)Nc1nncs1)C1CCCCC1 [Example 6, 2-(3-(3-(1,3,4-thiadiazol-2-yl)ureido)-4-(cyclohexyl(isobutyl)amino)phenoxy)acetic acid] | ≥ 100
17 | Cc1cc(NC(=O)Nc2cc(OCC(=O)O)ccc2N(CC(C)C)C2CCCCC2)no1 [Example 7, 2-(4-(cyclohexyl(isobutyl)amino)-3-(3-(5-methylisoxazol-3-yl)ureido)phenoxy)acetic acid] | ≥ 100

Row | Structure (SMILES) | IC50 [nM]
18 | CC(C)CN(c1ccc(OCC(=O)O)cc1NC(=O)Nc1nnc(C(F)(F)F)s1)C1CCCCC1 [Example 8, 2-(4-(cyclohexyl(isobutyl)amino)-3-(3-(5-(trifluoromethyl)-1,3,4-thiadiazol-2-yl)ureido)phenoxy) acetic acid] | ≥ 100
19 | CC(C)CN(c1ccc(OCC(=O)O)cc1NC(=O)Nc1ccc(N(C)C)cc1)C1CCCCC1 [Example 9, 2-(4-(cyclohexyl(isobutyl)amino)-3-(3-(4-(dimethylamino)phenyl)ureido)phenoxy)acetic acid] | ≥ 100
20 | CC(C)CN(c1ccc(OCC(=O)O)cc1NC(=O)Nc1ccon1)C1CCCCC1 [Example 10, 2-(4-(cyclohexyl(isobutyl)amino)-3-(3-(isoxazol-3-yl)ureido)phenoxy)acetic acid] | ≥ 100
21 | Cc1nnc(NC(=O)Nc2cc(OCC(=O)O)ccc2N(CC(C)C)C2CCCCC2)s1 [Example 11, 2-(4-(cyclohexyl(isobutyl)amino)-3-(3-(5-methyl-1,3,4-thiadiazol-2-yl)ureido)phenoxy)acetic acid] | ≥ 100
22 | CC(C)CN(c1ccc(OCC(=O)O)cc1NC(=O)Nc1nccs1)C1CCCCC1 [Example 12, 2-(4-(cyclohexyl(isobutyl)amino)-3-(3-(thiazol-2-yl)ureido)phenoxy)acetic acid] | ≥ 100
23 | CC(C)CN(c1ccc(OCC(=O)O)cc1NC(=O)Nc1ccc(Oc2ccccc2)cc1)C1CCCCC1 [Example 13, 2-(4-(cyclohexyl(isobutyl)amino)-3-(3-(4-phenoxyphenyl)ureido)phenoxy)acetic acid] | ≥ 100
24 | CC(C)CN(c1ccc(OCC(=O)O)cc1NC(=O)Nc1ccc(-c2cnco2)cc1)C1CCCCC1 [Example 14, 2-(4-(cyclohexyl(isobutyl)amino)-3-(3-(4-(oxazol-5-yl)phenyl)ureido)phenoxy)acetic acid] | ≥ 100
25 | CC(C)CN(c1ccc(OCC(=O)O)cc1NC(=O)Nc1ccc(OCc2ccccc2)cc1)C1CCCCC1 [Example 15, 2-(3-(3-(4-(benzyloxy)phenyl)ureido)-4-(cyclohexyl(isobutyl)amino)phenoxy)acetic acid] | ≥ 100
26 | CC(C)CN(c1ccc(OCC(=O)O)cc1NC(=O)N1CCc2ccccc21)C1CCCCC1 [Example 16, 2-(4-(cyclohexyl(isobutyl)amino)-3-(indoline-1-carboxamido)phenoxy)acetic acid] | ≥ 100
27 | CC(C)CN(c1ccc(OCC(=O)O)cc1NC(=O)Nc1ccc(F)cc1)C1CCCCC1 [Example 17, 2-(4-(cyclohexyl(isobutyl)amino)-3-(3-(4-fluorophenyl)ureido)phenoxy)acetic acid] | < 100
28 | CC(C)CN(c1ccc(OCC(=O)O)cc1NC(=O)Nc1ccccc1F)C1CCCCC1 [Example 18, 2-(4-(cyclohexyl(isobutyl)amino)-3-(3-(2-fluorophenyl)ureido)phenoxy)acetic acid] | < 5
29 | CC(C)CN(c1ccc(OCC(=O)O)cc1NC(=O)Nc1c(F)cccc1F)C1CCCCC1 [Example 19, 2-(4-(cyclohexyl(isobutyl)amino)-3-(3-(2,6-difluorophenyl)ureido)phenoxy)acetic acid] | ≥ 100
30 | CC(C)CN(c1ccc(OCC(=O)O)cc1NC(=O)Nc1cc(F)ccc1F)C1CCCCC1 [Example 20, 2-(4-(cyclohexyl(isobutyl)amino)-3-(3-(2,5-difluorophenyl)ureido)phenoxy)acetic acid] | < 5
31 | CC(C)CN(c1ccc(OCC(=O)O)cc1NC(=O)Nc1cc(Cl)ccc1F)C1CCCCC1 [Example 22, 2-(3-(3-(5-chloro-2-fluorophenyl)ureido)-4-(cyclohexyl(isobutyl)amino)phenoxy)acetic acid] | < 100
32 | Cc1ccc(NC(=O)Nc2cc(OCC(=O)O)ccc2N(CC(C)C)C2CCCCC2)c(F)c1 [Example 23, 2-(4-(cyclohexyl(isobutyl)amino)-3-(3-(2-fluoro-4-methylphenyl)ureido)phenoxy) acetic acid] | < 5
33 | CC(C)CN(c1ccc(OCC(=O)O)cc1NC(=O)Nc1ccc(F)c(Cl)c1F)C1CCCCC1 [Example 24, 2-(3-(3-(3-chloro-2,4-difluorophenyl)ureido)-4-(cyclo-hexyl(isobutyl)amino)phenoxy) acetic acid] | ≥ 100
